Several values for one entry are separate records, joined by “and”; a condition that tells them apart may be missing. Equal values may be shown once.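 Growth conditions: 96-well plates. Treatment: test compound, 48 hours, 5 concentrations. Analysis: linear interpolation between bracketing concentrations; unreached endpoints set to highest concentration. Abbreviation: GI50, concentration required for 50% inhibition of growth. TGI is the concentration that stops growth completely.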
Legend:
Experiment in all cases: DTP human tumour cell line panel, 48 h
A498 renal = tested on: A498 renal
ACHN renal = tested on: ACHN renal
EKVX NSCLC = tested on: EKVX NSCLC
K-562 leukemia = tested on: K-562 leukemia
NCI-H460 lung = tested on: NCI-H460 lung
OVCAR-5 ovarian = tested on: OVCAR-5 ovarian
SK-OV-3 ovarian = tested on: SK-OV-3 ovarian
SW-620 colon = tested on: SW-620 colon
TK-10 renal = tested on: TK-10 renal
UACC-257 melanoma = tested on: UACC-257 melanoma

Row | Structure (SMILES) | TGI (A498 renal) | TGI (ACHN renal) | TGI (EKVX NSCLC) | TGI (K-562 leukemia) | TGI (NCI-H460 lung) | TGI (OVCAR-5 ovarian) | TGI (SK-OV-3 ovarian) | TGI (SW-620 colon) | TGI (TK-10 renal) | TGI (UACC-257 melanoma) | GI50 (A498 renal) | GI50 (ACHN renal) | GI50 (EKVX NSCLC) | GI50 (K-562 leukemia) | GI50 (NCI-H460 lung) | GI50 (OVCAR-5 ovarian) | GI50 (SK-OV-3 ovarian) | GI50 (SW-620 colon) | GI50 (TK-10 renal) | GI50 (UACC-257 melanoma)
1 | COc1ccccc1C(=O)N(Cc1ccccc1)c1ccc(Cl)c(C(=O)OC(C)C)c1 | > 100 µM | 96.8 µM | > 87.8 µM | > 100 µM | > 100 µM | > 100 µM | > 91.7 µM | > 100 µM | > 100 µM | > 88.7 µM |  |  |  |  |  |  |  |  |  | 
2 | C=C1C[C@@H]2O[C@H]3[C@H]4[C@@H](CC[C@@](C)(OC(=O)CCC)[C@H]42)[C@@H](C)C(=O)O[C@@]3(C)CC[C@H]1OO | > 100 µM | 31.1 µM | 70.8 µM | 3.28 µM | 35.8 µM | > 100 µM | > 100 µM | 37.1 µM | 49.4 µM | 76.7 µM | > 100 µM | 17.3 µM | 27.7 µM | 1790 nM | 19.3 µM | > 100 µM | > 100 µM | 19600 nM | 26.1 µM | 26.2 µM
3 | NC1=NCN(C2OC(CO)C(O)C2O)C(=O)N1 (stereo not given) | 804 µM | 106 µM | 1870 µM | 788 µM | 294 µM | 2150 µM | 943 µM | 1340 µM | 1730 µM | 1430 µM |  |  |  |  |  |  |  |  |  | 
4 | COc1cccc(/C=N\NC(=O)C(C)SC(C)C(=O)N/N=C/c2cccc(OC)c2)c1 (stereo not given) | 27 µM | 35.6 µM | 60.2 µM | > 100 µM | 23.2 µM | > 100 µM | 32.4 µM | > 100 µM | 36.6 µM | > 100 µM |  |  |  |  |  |  |  |  |  | 
5 | COc1ccc(C2NC(=S)NC3=C2CCOc2c3ccc3ccccc23)cc1 (stereo not given) | > 100 µM | > 100 µM | > 100 µM | > 100 µM | > 100 µM | > 100 µM | > 100 µM | > 100 µM | > 100 µM | > 100 µM | 16.6 µM | 69.3 µM | 17.4 µM | 32400 nM | 7.88 µM | > 100 µM | > 100 µM | > 100000 nM | > 100 µM | 16.4 µM
6 | CC[C@H]1OC(=O)[C@H](C)[C@@H](O[C@H]2C[C@@](C)(OC)[C@@H](O)[C@H](C)O2)[C@H](C)[C@@H](O[C@@H]2O[C@H](C)C[C@H](N(C)C)[C@H]2O)[C@](C)(OC)C/C(C)=C2/O[C@@]1(C)C=C2C | 3.59 µM | 3.15 µM | 3.26 µM | 4.8 µM | 3.35 µM | 3.06 µM | 3.75 µM | 3.42 µM | 3.32 µM | 3.62 µM | 1.75 µM | 1.76 µM | 1.71 µM | 1560 nM | 1.81 µM | 1.68 µM | 1.91 µM | 1780 nM | 1.72 µM | 1.83 µM
7 | NCCCN=c1ccc2c3c1c(O)c1c(O)ccc(=O)c1c3[nH]n2CCNCCO | 7.19 µM and 8.57 µM | 4.52 µM | 17.9 µM and 42 µM | 24.2 µM and 27.2 µM | 3.66 µM and 15.7 µM | 17.4 µM and 17.2 µM | 16.2 µM and 55.7 µM | 9.98 µM and 40.5 µM | 21.3 µM and 77.7 µM | 14.1 µM and 105 µM |  |  | 6.08 µM and 4.62 µM | 1610 nM and 1640 nM | 0.117 µM and 0.12 µM |  | 1.51 µM |  | 6.59 µM | 4.32 µM
8 | CCOC(=O)/C(=C\c1ccc2ccccc2c1)P(=O)(OCC)OCC | 10.9 µM | 6.3 µM | 16 µM | 50.8 µM | 9.2 µM | 13.9 µM | 20.9 µM | 10.4 µM | 8.97 µM | 7.14 µM | 3.73 µM | 2.31 µM | 4.28 µM | 2730 nM | 2.71 µM | 3.95 µM | 8.84 µM | 2810 nM | 2.85 µM | 2.59 µM
9 | CCOc1ccc2cc(-c3nn(CC4CCNCC4)c4ncnc(N)c34)ccc2c1 | 24.9 µM | 29.8 µM | > 100 µM | 17.1 µM | 32.8 µM | 34.5 µM | 39.3 µM | 31.4 µM | 38.8 µM | 31.1 µM | 11.2 µM | 15.1 µM | 22.5 µM | 4690 nM | 16.8 µM | 14.9 µM | 17.3 µM | 15200 nM | 16.8 µM | 16.8 µM
10 | Cc1nc2ccccc2c(=O)n1/N=C(\N=Nc1cc(Cl)ccc1Cl)c1ccccc1 | > 100 µM | > 100 µM | > 100 µM | > 100 µM | > 100 µM | > 100 µM | > 100 µM | > 73.8 µM | > 100 µM | 66 µM |  |  |  |  |  |  |  |  |  | 
11 | CN1CC[C@H](c2c(O)cc(O)c3c(=O)cc(-c4ccccc4Cl)oc23)[C@H](O)C1 | 0.062 µM | > 10 µM | 0.559 µM | > 10 µM | > 10 µM | > 10 µM | > 10 µM | > 10 µM | > 10 µM | 0.91 µM | 0.0215 µM | 0.0316 µM |  | 225 nM |  | 0.0533 µM | 0.49 µM | 57.2 nM | 0.0999 µM | 0.128 µM
12 | COc1cc2c(c(OC)c1OC)C(=O)NCCC2 | > 100 µM | > 100 µM | > 100 µM | > 100 µM | > 100 µM | > 100 µM | > 100 µM | > 100 µM | > 100 µM | > 100 µM |  |  |  |  |  |  |  |  |  | 
13 | COc1cc2c3cc1Oc1c(OC)c(OC)cc4c1C(Cc1ccc(O)c(c1)Oc1ccc(cc1)CC3N(C)CC2)N(C)CC4 (stereo not given) | 48.4 µM | 34.9 µM and 44.1 µM | > 100 µM | > 100 µM and 12.9 µM | 32.4 µM and 38.8 µM | > 100 µM and 62.4 µM | 91.2 µM and > 100 µM | > 100 µM and 33.4 µM | > 100 µM and 39.3 µM | > 100 µM and 18.9 µM |  | 12.7 µM |  | 2040 nM |  | 8.3 µM | 36.9 µM |  | 20.8 µM | 5.99 µM
14 | C[C@H]1CC[P+](C)(c2ccccc2)C1 (stereo not given in full) | > 100 µM | > 100 µM | > 100 µM | > 100 µM | > 100 µM | > 100 µM | > 100 µM | > 100 µM | > 100 µM | > 100 µM |  |  |  |  |  |  |  |  |  | 
15 | C#C[C@]1(O)CC[C@H]2[C@@H]3CC=C4c5nc(N)sc5CC[C@]4(C)[C@H]3CC[C@@]21C | 4.21 µM | 30.2 µM | 50.9 µM | 74.5 µM | 16.4 µM | 36.9 µM | 10.5 µM | 8.68 µM | 39.4 µM | 6.86 µM | 1.96 µM | 5.25 µM | 5.47 µM | 2630 nM | 3.78 µM | 11.8 µM | 3.5 µM | 2810 nM | 11.3 µM | 2.36 µM
